Results reported in PubChem BioAssay (NCI).
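Protocol summary: plate cells (96-well), add compound at 5 concentrations, incubate 48 h, interpolate endpoints linearly. TGI marks complete inhibition of growth.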

Experiments:
Assay in all cases: NCI tumour cell line growth inhibition, 48 h
[1] = test system: A549 NSCLC
[2] = test system: CCRF-CEM leukemia
[3] = test system: COLO 205 colon
[4] = test system: HCT-116 colon
[5] = test system: HL-60(TB) leukemia
[6] = test system: IGROV1 ovarian
[7] = test system: KM12 colon
[8] = test system: LOX IMVI melanoma
[9] = test system: MOLT-4 leukemia
[10] = test system: NCI-H226 lung
[11] = test system: OVCAR-8 ovarian
[12] = test system: SF-539 CNS
[13] = test system: SK-OV-3 ovarian
[14] = test system: SNB-75 CNS
[15] = test system: T-47D breast
[16] = test system: U251 CNS
[17] = test system: UACC-257 melanoma
[18] = test system: UACC-62 melanoma
[19] = test system: HOP-92 NSCLC

Measured: TGI

CCN(CC)C(=C(C(Cl)=C(Cl)Cl)[N+](=O)[O-])N(CC)CC
> 100 µM: [1] | [2] | [3] | [4] | [5] | [6] | [7] | [8] | [9] | [10] | [11] | [12] | [13] | [14] | [15] | [16] | [17] | [18]

Cc1oc2c(c1C)S(=O)(=O)C(C#N)C(c1ccccc1)N2 (configuration not stated)
48.2 µM: [2]
> 100 µM: [1] | [3] | [4] | [19] | [6] | [7] | [8] | [10] | [11] | [12] | [13] | [14] | [15] | [16] | [17] | [18]
65.5 µM: [9]

O=C1CC(NC(=O)C(F)(F)F)c2c1csc2Br (configuration not stated)
> 100 µM: [1] | [2] | [3] | [4] | [5] | [19] | [6] | [7] | [8] | [9] | [10] | [11] | [12] | [13] | [15] | [16] | [17] | [18]

Cc1oc2c(c1C)S(=O)(=O)C(C#N)=C(c1ccccc1)N2
> 100 µM: [1] | [3] | [19] | [6] | [7] | [8] | [9] | [10] | [11] | [12] | [13] | [14] | [15] | [16] | [17] | [18]

O=C1CC(=O)NC(=NN2C(=O)/C(=C/C(=O)c3ccco3)N=C2c2ccccc2)N1
> 100 µM: [1] | [3] | [4] | [19] | [6] | [7] | [10] | [11] | [12] | [13] | [14] | [15] | [16] | [17] | [18]
51.7 µM: [2]
60.7 µM: [9]

COc1cc(/C=C(\C#N)c2nc3ccccc3o2)ccc1O
28.5 µM: [12]
37.7 µM: [7]
36.7 µM: [13]
43.4 µM: [1]
36.2 µM: [16]
34.3 µM: [4]
50.8 µM: [19]
> 100 µM: [2] | [9] | [17]
46.9 µM: [15]
49 µM: [10]
50 µM: [11]
40.5 µM: [18]
55.3 µM: [5]
38.1 µM: [6]
33 µM: [3]

COc1cc(S(=O)(=O)Nc2nc(-c3ccc(N4C(=O)C(CC(=O)O)SC4c4ccccc4O)cc3)cs2)ccc1Cl (configuration not stated)
57 µM: [5]
> 100 µM: [1] | [3] | [4] | [19] | [6] | [7] | [8] | [9] | [10] | [11] | [12] | [13] | [14] | [15] | [16] | [17] | [18]

CCN(CC)CCC(=O)NC1c2ccc(Cl)cc2Oc2c(C)cccc21 (configuration not stated)
31.4 µM: [11]
31.6 µM: [17]
38.7 µM: [9]
31.5 µM: [15]
27.7 µM: [12]
40 µM: [6]
33.3 µM: [1]
41.2 µM: [5]
29.1 µM: [8]
30.4 µM: [7]
31.8 µM: [13]
40.8 µM: [19]
34 µM: [18]
37 µM: [2]
40.1 µM: [3]
22.5 µM: [14]
30.2 µM: [4]

COc1cc(OCc2ccc3nc(-c4ccccc4)c(Cl)nc3c2)cc(OC)c1OC
78.3 µM: [19]
52.3 µM: [16]
> 100 µM: [1] | [2] | [3] | [4] | [5] | [6] | [7] | [8] | [9] | [11] | [12] | [14] | [15] | [17] | [18]

COc1ccc2cc(Oc3ccc(Cl)cc3)c(=O)oc2c1
> 100 µM: [1] | [2] | [4] | [5] | [19] | [6] | [7] | [8] | [9] | [10] | [11] | [12] | [14] | [15] | [17]

OC(CCN1CCCCC1)(c1ccccc1)c1ccccc1
> 100 µM: [1] | [2] | [3] | [4] | [19] | [6] | [7] | [8] | [9] | [11] | [13] | [15] | [16] | [18]

Cc1cc(C)nc(NS(=O)(=O)c2ccc(Nc3c4ccccc4nc4c(C(=O)NNCCO)cccc34)cc2)n1
> 100 µM: [1] | [2] | [3] | [5] | [19] | [6] | [7] | [8] | [9] | [11] | [13] | [15] | [16] | [17] | [18]

CC1(C)CN=C(c2ccc3c(c2)Cc2cc(C4=NCC(C)(C)N4)ccc2-3)N1
69.5 µM: [18]
64.8 µM: [16]
> 100 µM: [1] | [2] | [3] | [4] | [19] | [6] | [7] | [8] | [9] | [10] | [11] | [13] | [14] | [15] | [17]
